Series [1] deals with cardiac β-receptor. The series is described as follows: Cardiac β-receptor blocking activity: inhibition of isoprenalin-induced heart frequency increase (tachycardia) in wake rabbits. The settings on record: wake rabbit; for Blocking of Isoprenalin Tachycardia in wake rabbits: Heartbeat Frequency x±sx: isoprenalin 1 μg/kg i.v. 30 min after infusion; for DE250: interpolated dosage which limits the frequency increase to 250 beats/min. The series is classed as in vivo. The procedure: (§1) The following tests were carried out to determine the cardiac β-receptor blocking activity and the acute toxicity of certain compounds representative of the invention, as well as of a conventional comparison compound.
The cardiac β-receptor blocking activity of the test compounds was evaluated by determination of the inhibition of isoprenalin-induced heart frequency increase in wake rabbits. This type of inhibition is a typical property of β-receptor blocking bio catalysts.
The tests were carried out on rabbits weighing between 2 to 3.5 kg settled in wooden cages with EKG-electrodes inserted into the hind-quarters s.c. The heart frequency was read via an integrator (15 seconds) as a digital value. The substances to be tested were infused through a small tube to the ear vein of the rabbits over a period of 15 minutes 30 minutes after completion of the infusion, isoprenalin (1 μg/kg) was intravenously injected. The results were set forth in terms of the reduction of the heartbeat increase induced by isoprenalin and a value (DE250) calculated as the dosage required to limit such increase to 250 heart beats/min.

Series [2] can be described thus: in vivo. The settings on record: iv; for LD50: mouse, i.v. into tail vein within 5 seconds, dosage at which 50% of the mice die, read-out: Acute Toxicity LD50 Mouse; for therapeutic index (LD50/DE250): ratio of LD50 (mouse i.v.) to DE250 (wake rabbit i.v.). On the procedure:
as §1
In another series of tests, the acute toxicity in mice of the test compounds by intravenous administration was determined as a measure of the tolerance (calculated as LD50 = dosage at which 50% of the mice die). The substances were injected, within a time period of 5 seconds, in dissolved form into the tail vein of 5 male and 5 female mice each, in increasing dosages. From the results (percentage of dead animals) at the various dosages, the mean lethal dosage was ascertained graphically or by way of programmed test analysis.
The results of both series of tests are set forth in the table below which contains, in addition, a calculated value expressing the ratio of LD50 : DE250 for each test compound.

For `CC(=O)Nc1ccc(OCC(O)CNC(C)C)cc1` (stereo not shown) [Comparison Compound A, 4-[2-hydroxy-3-isopropylaminopropoxy]acetanilide, reference compound], the “Blocking of Isoprenalin Tachycardia in wake rabbits: Heartbeat Frequency x±sx” value (shortened to “Blocking of Isoprenalin Tachycardia”) in series [1] (dosage 0.5 mg/kg i.v.) is 307± 7 Beats/minute; in series [1] (dosage 1.0 mg/kg i.v.), 264± 9 Beats/minute; in series [1] (dosage 2.0 mg/kg i.v.), 250± 4 Beats/minute; in series [1] (dosage 5.0 mg/kg i.v.), 246± 7 Beats/minute; in series [1] (dosage 10.0 mg/kg i.v.), 217± 4 Beats/minute; in series [1] (dosage 20.0 mg/kg i.v.), 225± 6 Beats/minute. In series [1], this compound yielded a DE250 of 2.5 mg/kg i.v. Moreover, the LD50 in series [2] turned out to be 69 mg/kg.
Turning to `CC(C)NCC(O)COc1ccccc1N=[N+]=[N-]` (stereo not shown) [Compound 1, 2-(2-Hydroxy-3-isopropylaminopropoxy)-azidobenzene], the “Blocking of Isoprenalin Tachycardia” value in series [1] (dosage 0.01 mg/kg i.v.) amounted to 288± 8 Beats/minute; in series [1] (dosage 0.1 mg/kg i.v.), 252±10 Beats/minute; in series [1] (dosage 0.5 mg/kg i.v.), 250± 5 Beats/minute; in series [1] (dosage 1.0 mg/kg i.v.), 236±11 Beats/minute; in series [1] (dosage 5.0 mg/kg i.v.), 223± 6 Beats/minute. In addition, the DE250 in series [1] is on record as 0.3 mg/kg i.v. Moreover, the LD50 in series [2] came to 25 mg/kg. Moreover, the therapeutic index (LD50/DE250) in series [2] was determined as 80.
As to `CC(C)NCC(O)COc1cccc(N=[N+]=[N-])c1` (stereo not shown) [Compound 2, 3-(2-Hydroxy-3-isopropylaminopropoxy)-azidobenzene], the “Blocking of Isoprenalin Tachycardia” value is 282± 9 Beats/minute in series [1] (dosage 0.5 mg/kg i.v.), 258±10 Beats/minute in series [1] (dosage 1.0 mg/kg i.v.) and 205± 9 Beats/minute in series [1] (dosage 5.0 mg/kg i.v.). Besides, in series [1], the DE250 was found to be 1.3 mg/kg i.v. In addition, the LD50 in series [2] came to 50 mg/kg. Moreover, the therapeutic index (LD50/DE250) in series [2] is 40.
In the case of `CC(C)(C)NCC(O)COc1cccc(N=[N+]=[N-])c1` (stereo not shown) [Compound 3, 3-(2-Hydroxy-3-tert.-butylaminopropoxy)-azidobenzene], the “Blocking of Isoprenalin Tachycardia” value amounted to 317±10 Beats/minute in series [1] (dosage 0.1 mg/kg i.v.); 256±10 Beats/minute in series [1] (dosage 0.5 mg/kg i.v.); 222± 6 Beats/minute in series [1] (dosage 2.0 mg/kg i.v.); 235±10 Beats/minute in series [1] (dosage 5.0 mg/kg i.v.); 244± 8 Beats/minute in series [1] (dosage printed "10" mg/kg i.v. (Compound 3 line)). The DE250 in series [1] is recorded as 0.8 mg/kg i.v. The LD50 in series [2] was determined as 50 mg/kg. Moreover, the therapeutic index (LD50/DE250) in series [2] worked out at 60.
With `CC(C)(C)NCC(O)COc1ccccc1N=[N+]=[N-]` (stereo not shown) [Compound 4, 2-(2-Hydroxy-3-tert.-butylaminopropoxy)-azidobenzene], the “Blocking of Isoprenalin Tachycardia” value in series [1] (dosage 0.1 mg/kg i.v.) is 282± 5 Beats/minute; in series [1] (dosage 0.5 mg/kg i.v.), 237± 7 Beats/minute; in series [1] (dosage 1.0 mg/kg i.v.), 246± 6 Beats/minute; in series [1] (dosage 5.0 mg/kg i.v.), 245±14 Beats/minute. In series [1], this compound registered a DE250 of 0.5 mg/kg i.v. Besides, the LD50 in series [2] amounted to 29 mg/kg. For the same compound, the therapeutic index (LD50/DE250) in series [2] is 58.

(Values after patent US3968129A, “Azidophenol amine compounds and therapeutic compositions” (Boehringer Mannheim G.m.b.H., priority 1974, dated 1976).)
